Test results from patent US8052963B2, “[(4-oxo-4H-chromen-3-yl)hydroxymethyl]- or [(4-oxo-4H-chromen-3-yl)methyl]phosphonic acid derivatives” (Merck Patent Gesellschaft mit beschrankter Haftung, priority 2006, dated 2011).

Assay: TEAC assay (trolox equivalent antioxidant activity assay)
Conditions: absorption at 734 nm measured after 6 minutes; relative to trolox = 1.0
Procedure: • a) The basis for the determination of the antioxidative efficacy is the so-called DPPH test, as described in Bünger et al. [Buenger, J., Ackermann, H., Jentzsch, A., Mehling, A., Pfizner, I., Reiffen, K.-A., Schroeder, K.-R., and Wollenweber U., An interlaboratory comparison of methods used to assess antioxidant potentials, Int. J. Cosm. Sci., 28 (2006) 1-12]. The anti-oxidative efficacy of [(7,8-dihydroxy-4-oxo-4H-chromen-3-yl)hydroxy-methyl]phosphonic acid is determined in the DPPH test. […] J. Cosm. Sci., 28 (2006), 1-12].
ABTS [2,2′-azinobis(3-ethylbenzothiazoline-6-sulfonic acid)] reacts with potassium peroxodisulfate by generating a stable free-radical cation which absorbs at 734 nm. The antioxidant measured reduces the free-radical cation and thus causes a weakening of the absorption capacity at 734 nm. The absorption is measured after a fixed time span of 6 minutes. The anti-oxidative potential of the substance measured is indicated as activity compared with trolox. The substance measured may be present dissolved in water or ethanol during the measurement.

SMILES	antioxidative potential, activity compared with trolox (TEAC)
O=c1c(C(O)P(=O)(O)O)coc2c(O)c(O)ccc12 (centres unmarked) [Example 1, [(7,8-dihydroxy-4-oxo-4H-chromen-3-yl)-hydroxymethyl]phosphonic acid]	0.93
Cc1c(C)c2c(c(C)c1O)CCC(C)(C(=O)O)O2 (centres unmarked) [trolox, reference compound]	1.0
